Experimental data published in patent US20250339415A1, “DISULFIDE COMPOUNDS AS MEDICAMENTS” (CYTACOAT AB, priority 2021, published 2025).

Tests used:
Format in all cases: cell-based
E. coli [1] = test: Combination therapy: Fradiomycin with PDEA, visible growth; settings: no PDEA
Description: (§1) Different concentrations of Fradiomycin in Mueller Hinton were prepared in 3 different concentrations of PDEA. E. coli and S. aureus were inoculated (10^5) and were incubated overnight. Readouts were “Clear” and “Foggy”.

S. aureus [2] = test: as above; settings: no PDEA
Description: as §1

E. coli [3] = test: Combination therapy: Gentamycin with PDEA, visible growth; settings: No PDEA
Description: (§2) Different concentrations of Gentamycin in Mueller Hinton were prepared in 3 different concentrations of PDEA. E. coli and S. aureus were inoculated (10^5) and were incubated O/N.
(§3) Readouts were “Clear” and “Foggy”.

S. aureus [4] = test: as above; settings: No PDEA
Description: as §2, §3

NC[C@@H]1O[C@H](O[C@H]2[C@@H](O)[C@H](O[C@@H]3[C@@H](O)[C@H](N)C[C@H](N)[C@H]3O[C@H]3O[C@H](CN)[C@@H](O)[C@H](O)[C@H]3N)O[C@@H]2CO)[C@H](N)[C@@H](O)[C@@H]1O [Fradiomycin]
Clear: visible growth readout (E. coli [1]; Fradiomycin 2 μg/ml) | visible growth readout (E. coli [1]; Fradiomycin 4 μg/ml) | visible growth readout (E. coli [1]; Fradiomycin 8 μg/ml) | visible growth readout (E. coli [1]; Fradiomycin 16 μg/ml) | visible growth readout (E. coli [1]; Fradiomycin 32 μg/ml) | visible growth readout (E. coli [1]; Fradiomycin 64 μg/ml) | visible growth readout (E. coli [1]; Fradiomycin 128 μg/ml) | visible growth readout (E. coli [1]; Fradiomycin 256 μg/ml) | visible growth readout (S. aureus [2]; Fradiomycin 1 μg/ml) | visible growth readout (S. aureus [2]; Fradiomycin 2 μg/ml) | visible growth readout (S. aureus [2]; Fradiomycin 4 μg/ml) | visible growth readout (S. aureus [2]; Fradiomycin 8 μg/ml) | visible growth readout (S. aureus [2]; Fradiomycin 16 μg/ml) | visible growth readout (S. aureus [2]; Fradiomycin 32 μg/ml) | visible growth readout (S. aureus [2]; Fradiomycin 64 μg/ml) | visible growth readout (S. aureus [2]; Fradiomycin 128 μg/ml) | visible growth readout (S. aureus [2]; Fradiomycin 256 μg/ml)
Foggy: visible growth readout (E. coli [1]; Fradiomycin 0.0156 μg/ml) | visible growth readout (E. coli [1]; Fradiomycin 0.03125 μg/ml) | visible growth readout (E. coli [1]; Fradiomycin 0.0625 μg/ml) | visible growth readout (E. coli [1]; Fradiomycin 0.125 μg/ml) | visible growth readout (E. coli [1]; Fradiomycin 0.25 μg/ml) | visible growth readout (E. coli [1]; Fradiomycin 0.5 μg/ml) | visible growth readout (S. aureus [2]; Fradiomycin 0.0156 μg/ml) | visible growth readout (S. aureus [2]; Fradiomycin 0.03125 μg/ml) | visible growth readout (S. aureus [2]; Fradiomycin 0.0625 μg/ml) | visible growth readout (S. aureus [2]; Fradiomycin 0.125 μg/ml) | visible growth readout (S. aureus [2]; Fradiomycin 0.25 μg/ml) | visible growth readout (S. aureus [2]; Fradiomycin 0.5 μg/ml)

Gentamycin
Clear: Visible growth readout (Clear/Foggy) (E. coli [3]; Gentamycin 1 μg/ml) | Visible growth readout (Clear/Foggy) (E. coli [3]; Gentamycin 2 μg/ml) | Visible growth readout (Clear/Foggy) (E. coli [3]; Gentamycin 4 μg/ml) | Visible growth readout (Clear/Foggy) (E. coli [3]; Gentamycin 8 μg/ml) | Visible growth readout (Clear/Foggy) (E. coli [3]; Gentamycin 16 μg/ml) | Visible growth readout (Clear/Foggy) (E. coli [3]; Gentamycin 32 μg/ml) | Visible growth readout (Clear/Foggy) (E. coli [3]; Gentamycin 64 μg/ml) | Visible growth readout (Clear/Foggy) (E. coli [3]; Gentamycin 128 μg/ml) | Visible growth readout (Clear/Foggy) (E. coli [3]; Gentamycin 256 μg/ml) | Visible growth readout (Clear/Foggy) (S. aureus [4]; Gentamycin 0.25 μg/ml) | Visible growth readout (Clear/Foggy) (S. aureus [4]; Gentamycin 0.5 μg/ml) | Visible growth readout (Clear/Foggy) (S. aureus [4]; Gentamycin 1 μg/ml) | Visible growth readout (Clear/Foggy) (S. aureus [4]; Gentamycin 2 μg/ml) | Visible growth readout (Clear/Foggy) (S. aureus [4]; Gentamycin 4 μg/ml) | Visible growth readout (Clear/Foggy) (S. aureus [4]; Gentamycin 8 μg/ml) | Visible growth readout (Clear/Foggy) (S. aureus [4]; Gentamycin 16 μg/ml) | Visible growth readout (Clear/Foggy) (S. aureus [4]; Gentamycin 32 μg/ml) | Visible growth readout (Clear/Foggy) (S. aureus [4]; Gentamycin 64 μg/ml) | Visible growth readout (Clear/Foggy) (S. aureus [4]; Gentamycin 128 μg/ml) | Visible growth readout (Clear/Foggy) (S. aureus [4]; Gentamycin 256 μg/ml)
Foggy: Visible growth readout (Clear/Foggy) (E. coli [3]; Gentamycin 0.0156 μg/ml) | Visible growth readout (Clear/Foggy) (E. coli [3]; Gentamycin 0.03125 μg/ml) | Visible growth readout (Clear/Foggy) (E. coli [3]; Gentamycin 0.0625 μg/ml) | Visible growth readout (Clear/Foggy) (E. coli [3]; Gentamycin 0.125 μg/ml) | Visible growth readout (Clear/Foggy) (E. coli [3]; Gentamycin 0.25 μg/ml) | Visible growth readout (Clear/Foggy) (E. coli [3]; Gentamycin 0.5 μg/ml) | Visible growth readout (Clear/Foggy) (S. aureus [4]; Gentamycin 0.0156 μg/ml) | Visible growth readout (Clear/Foggy) (S. aureus [4]; Gentamycin 0.03125 μg/ml) | Visible growth readout (Clear/Foggy) (S. aureus [4]; Gentamycin 0.0625 μg/ml) | Visible growth readout (Clear/Foggy) (S. aureus [4]; Gentamycin 0.125 μg/ml)
